Data from patent US9664696B1, “Compounds for determining the presence of hydrogen sulfide and methods of use” (University of Oregon, priority 2013, dated 2017).

Columns and labels:
[1] = UV-vis titration of 100 with NaSH, absorbance of products; type: physicochemical; design: ε413: unit not given here; details: PIPES buffer pH 7.4
[2] = biological target: cystathionine γ-lyase (CSE) (Homo sapiens, UniProt P32929); experiment: Detection of enzymatically produced H2S from isolated CSE; type: biochemical
Experimental: (§1) In a septum sealed cuvette, the desired reactive species were incubated in PIPES buffer (50 mM PIPES, 100 mM KCl, pH 7.4) at 37.0° C. for 48 hours. After initial incubation, 15 μL of 10 mM chemiluminescent compound precursor 202 in DMSO was added, and allowed to react for 60 min. After incubation, 40 μL of 6 M NaOH was added to increase the pH to an optimal level for luminol chemiluminescence. After pH adjustment, 10 μL of 10 U/mL Horse-radish Peroxidase (HRP) with 0.2 μM p-iodophenol was added. A background reading was acquired for 60 s, after which 50 μL of H2O2 (35%) was added. The sample luminosity at 425 nm was integrated for 40 s after H2O2 addition. The data reported are the average of at least three independent experiments.
CSE is a PLP-dependent enzyme that converts Hcy or Cys to H2S and can be inhibited by β-cyano-L-alanine (BCA).

[3] = Chemiluminescent H2S detection limit (HRP/H2O2/p-iodophenol); details: for chemiluminescent response after H2S-mediated reduction: followed by treatment with HRP and H2O2; for chemiluminescence in the absence of H2S: treatment with HRP and H2O2, by comparison to luminol or isoluminol
Experimental: (§2) In a septum-sealed cuvette, a solution of the compound (50 μM) and the desired reactive species was incubated in PIPES buffer (50 mM PIPES, 100 mM KCl, pH 7.4) for 60 minutes at 37.0° C. After incubation, 40 μL of 6 M NaOH was added to increase the pH to an optimal level for luminol chemiluminescence. After pH adjustment, 10 μL of 10 U/mL Horseradish Peroxidase (HRP) with 0.2 μM p-iodophenol was added. A background reading was acquired for 60 seconds, after which 50 μL of H2O2 (35%) was added. The sample luminosity at 425 nm was integrated for 300 s after H2O2 addition. The data reported are the average of at least three independent experiments.
In this particular embodiment, the use of a compound for a chemiluminescent testing method is disclosed.
Following the H2S-derived chemiluminescent response of both chemiluminescent compound precursor 200 and chemiluminescent compound precursor 202, the detection limit of each chemiluminescent compound precursor for H2S was determined. After incubating each chemiluminescent compound precursor for 1 hour for different H2S concentrations, the chemiluminescent response was measured after treatment with H2O2/HRP using p-iodophenol as an enhancer. […] Based on the concentration-dependent H2S response and the instrumental background measurements, the H2S detection limit (3σ) of chemiluminescent compound precursor 200 and chemiluminescent compound precursor 202 was determined to be 0.7±0.3 μM and 4.6±2.0 μM, respectively. Although the total brightness of chemiluminescent compound precursor 202 was lower than that of compound 200, both these detection limits were below the reported range of H2S concentrations (20 μM-100 μM) found in mammalian blood.

[4] = Air sensitivity of the chemiluminescent compound precursors; type: physicochemical
C6 cells = experiment: Detection of endogenously produced H2S in C6 cell lysates; type: cell-based
Experimental: as §1
C6 cells were obtained from ATCC and cultured in Dulbecco's Modified Eagle Medium (DMEM, Cellgro, MediaTek, Inc.) supplemented with 10% fetal bovine serum (FBS, HyClone), and 1% penicillin/streptomycin. Cells were passed and plated into T-75 flasks containing 10 mL of DMEM, and incubated at 37° C. with 5% CO2. For luminescence studies, the cells were washed with 1× phosphate buffered saline (PBS), trypsinized with 5 mL of Trypsin, and then centrifuged to form a cell pellet. The cell pellet was resuspended in 5 mL of 1×PBS and the cells were counted using a Bio RAD TC20 automated cell counter. Cells were centrifuged at 1,000 RPM for 5 minutes at room temperature, placed on ice and lysed using 100 μL of RIPA buffer (pH 7.5 10 mM Tris-HCl, 150 mM NaCl, 1.0% Nonidet P-40, 0.1% SDS, 0.1% sodium deoxycholate) containing protease inhibitor (PhosSTOP, Roche) for every 2×10^6 cells in the pellet. Luminescence measurements on cell lysates were made using 100 μL of lysate solution (2×10^6 cells per experiment) under ambient atmosphere by following the general procedure for enzymatically produced H2S outlined above.
The ability of chemiluminescent compound precursor 202 to detect and quantify endogenously-produced H2S in C6 cells was determined.

[5] = Chemiluminescence selectivity for H2S over reactive sulfur, oxygen, and nitrogen species (RSONS); details: for turn on for H2S: chemiluminescence, H2S versus blank
Experimental: as §2
The response of chemiluminescent compound precursor 200 and chemiluminescent compound precursor 202 to biologically-relevant reactive sulfur, oxygen, and nitrogen species (RSONS) was also determined. The selectivity of chemiluminescent compound precursor 200 for H2S was determined by adding 33 equivalents of cysteine (Cys), homocysteine (Hcy), N-acetylcysteine (NAC), reduced glutathione (GSH), thiosulfate (S2O3^2−), sulfate (SO4^2−), nitric oxide (NO), nitroxyl (HNO), and nitrite (NO2^−) (FIGS. 10 and 11). […]

[6] = 1H NMR titration, 1:1 binding model, TBA-Val; details: 10.0 mM probe, 0-200 mM amino acid, DMSO-d6, 25.0° C., average of three titrations
Experimental: (§3) A septum-sealed NMR tube was charged with either chemiluminescent compound precursor 200 or 202 (10 mM in 300 μL of DMSO-d6) and aliquots of a DMSO-d6 solution containing 200 mM amino acid mixed with 10 mM of the compound were added using a syringe. The chemical shifts of the aromatic proton resonances were tracked and the data were fitted to a 1:1 binding model.
^1H NMR titrations with tetrabutylammonium valine (TBA-Val) were also performed as a second model system in which the side chain of the amino acid cannot hydrogen bond to the azide. […] The binding affinities measured for TBA-Val are larger than for TBA-Ser (Table 9), which is consistent with the reduced internal competition for intramolecular hydrogen bonding sites in valine. Based on these titration data, and the lower hydrogen bonding ability of thiols by comparison to alcohols, binding affinity of cysteine for chemiluminescent compound precursor 200 and 202 was expected to be between the measured values for serine and valine. Under the general experimental conditions used to measure the selectivity date, a 10^3-10^4 M^−1 binding affinity between Cys/chemiluminescent compound precursor 200 would result in significant generation of the Cys/chemiluminescent compound precursor 200 adduct, which is consistent with the observed erosion in selectivity. […]

[7] = 1H NMR titration, 1:1 binding model, TBA-Ser; details: 10.0 mM probe, 0-200 mM amino acid, DMSO-d6, 25.0° C., average of three titrations
Experimental: as §3
In addition to computational evidence for the hydrogen-bonding hypothesis, NMR titrations of chemiluminescent compound precursors 200 and 202 were also performed with different amino acids to further validate the model with solution data. Serine was used as a model amino acid because cysteine quickly reduces chemiluminescent compound precursor 200 under typical experimental conditions. […] Similarly, to model the protonation state of the amino acids in water, and also to ensure complete solubility through the course of the titration, the tetrabutylammonium salts of each amino acid were prepared. By titrating tetrabutylammonium serine (TBA-Ser) into independent solutions of chemiluminescent compound precursors 200 and 202, striking changes in the aromatic region of the NMR spectra were observed, consistent with amino acid binding to the hydrazide moiety (FIGS. 34A-34C). […]

[8] = pH titration of compound 42 monitored by UV-vis; type: physicochemical; details: aqueous 100 mM KCl / 10 mM KOH solution titrated with HCl; absorbance at 534 nm as a function of pH; read-out: apparent pKa of the thiol
Experimental: A 15 mL solution of compound 42 (111 μM) in 100 mM KCl and 10 mM KOH Millipore water was prepared. The pH of the solution was adjusted with 10 M, 5 M, 1 M, 50 mM, or 1 mM solutions of HCl and the pH recorded. At each pH value, an aliquot of the solution was transferred to a cuvette and the UV-vis spectrum was measured. After measurement, the aliquot was returned to the stock solution and the pH was adjusted to the next point in the titration.

[9] = pH 7.4
[10] = Colorimetric selectivity studies, H2S versus amino acids and RSONS
[11] = Reactant 2-mercaptoethanol (2-ME)
[12] = Reactant H2S, 33 equivalents, 50 μM compound, 60 min, 37.0° C., pH 7.4
[13] = 30 equivalents of H2S then added, 45 min

Sequence of cystathionine γ-lyase (CSE) (P32929 whole entry, species assumed): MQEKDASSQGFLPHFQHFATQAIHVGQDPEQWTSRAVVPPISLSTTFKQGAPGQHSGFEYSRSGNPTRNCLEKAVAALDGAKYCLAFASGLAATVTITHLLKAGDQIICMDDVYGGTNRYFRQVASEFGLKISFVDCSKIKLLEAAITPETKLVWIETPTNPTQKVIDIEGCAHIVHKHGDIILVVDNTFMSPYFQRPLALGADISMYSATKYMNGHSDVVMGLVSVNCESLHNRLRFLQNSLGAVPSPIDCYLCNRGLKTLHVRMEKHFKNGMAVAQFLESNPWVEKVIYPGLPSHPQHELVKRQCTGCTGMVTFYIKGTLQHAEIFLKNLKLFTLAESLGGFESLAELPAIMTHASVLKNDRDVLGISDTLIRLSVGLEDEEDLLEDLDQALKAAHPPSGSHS

SMILES	air sensitivity [4]	Binding Affinities [6] [M⁻¹]	Binding Affinities [7] [M⁻¹]	chemiluminescent response after H2S-mediated reduction [3]	chemiluminescence in the absence of H2S [3]	Normalized Luminescence (CL/CL0) [5, 11]	Normalized Luminescence (CL/CL0) ([5]; Reactant Cys)	Normalized Luminescence (CL/CL0) ([5]; Reactant GSH)	Normalized Luminescence (CL/CL0) [5, 12]	Normalized Luminescence (CL/CL0) ([5]; Reactant HNO)	Normalized Luminescence (CL/CL0) ([5]; Reactant Hcy)	Normalized Luminescence (CL/CL0) ([5]; Reactant NAC)	Normalized Luminescence (CL/CL0) ([5]; Reactant NO2)	Normalized Luminescence (CL/CL0) ([5]; Reactant ONOO^−)	Normalized Luminescence (CL/CL0) ([5]; Reactant S2O^2−)	Normalized Luminescence (CL/CL0) ([5]; Reactant SNAP (NO))	Normalized Luminescence (CL/CL0) ([5]; Reactant SO4^2−)	turn on for H2S [5] [fold]	also measured
O=[N+]([O-])c1ccc(Sc2ccc([N+](=O)[O-])c3nonc23)c2nonc12 [compound 40, bis(7-Nitrobenzo[c][1,2,5]oxadiazol-4-yl)sulfane]	–	–	–	–	–	–	–	–	–	–	–	–	–	–	–	–	–	–	ε413 ([1]; absorbance at 413 nm): 11,700±100
O=[N+]([O-])c1ccc(S)c2nonc12 [compound 42, 7-Nitrobenzo[c][1,2,5]oxadiazole-4-thiol]	–	–	–	–	–	–	–	–	–	–	–	–	–	–	–	–	–	–	ε534 ([1]; λmax 534 nm): 19,000±600 M^−1 cm^−1; pKa [8]: 2.6
Cc1cc(=O)oc2cc(N=[N+]=[N-])ccc12 [C-7Az, 7-azido-4-methylcoumarin]	–	–	–	–	–	–	–	–	–	–	–	–	–	–	–	–	–	–	photostability under continuous exposure [9]: probe photoactivation
O=[N+]([O-])c1ccc(Sc2ccc([N+](=O)[O-])c3nonc23)cc1 [compound 116, 4-Nitro-7-(4-nitrophenylthio)benzo[c][1,2,5]oxadiazole]	–	–	–	–	–	–	–	–	–	–	–	–	–	–	–	–	–	–	absorbance peak at 534 nm after initial incubation ([10]; 3 μM compound, 10 equivalents of H2S, glycine, serine, tyrosine, lysine, glutathione, N-acetyl-L-cysteine): only the H2S samples showed the characteristic absorbance peak at 534 nm; H2S response after incubation of GSH and N-acetylcysteine [10, 13]: somewhat eroded; colorimetric response to H2S after incubation with biological nucleophiles [10, 13]: robust colorimetric response to H2S

Now from value to compound, other results behind:

air sensitivity [4]	Binding Affinities [6] [M⁻¹]	Binding Affinities [7] [M⁻¹]	SMILES	chemiluminescent response after H2S-mediated reduction [3]	chemiluminescence in the absence of H2S [3]	Normalized Luminescence (CL/CL0) [5, 11]	Normalized Luminescence (CL/CL0) ([5]; Reactant Cys)	Normalized Luminescence (CL/CL0) ([5]; Reactant GSH)	Normalized Luminescence (CL/CL0) [5, 12]	Normalized Luminescence (CL/CL0) ([5]; Reactant HNO)	Normalized Luminescence (CL/CL0) ([5]; Reactant Hcy)	Normalized Luminescence (CL/CL0) ([5]; Reactant NAC)	Normalized Luminescence (CL/CL0) ([5]; Reactant NO2)	Normalized Luminescence (CL/CL0) ([5]; Reactant ONOO^−)	Normalized Luminescence (CL/CL0) ([5]; Reactant S2O^2−)	Normalized Luminescence (CL/CL0) ([5]; Reactant SNAP (NO))	Normalized Luminescence (CL/CL0) ([5]; Reactant SO4^2−)	turn on for H2S [5] [fold]	also measured
not air-sensitive	3780 ± 370	260 ± 60	[N-]=[N+]=Nc1ccc2c(=O)[nH][nH]c(=O)c2c1 [compound 202, 4-Azidophthalhydrazide]	robust chemiluminescent response	negligible chemiluminescence	1.7 ± 0.08	1.5 ± 0.03	3.7 ± 0.9	45 ± 3	3.3 ± 0.2	3.3 ± 0.5	3.3 ± 0.4	3.2 ± 0.6	4.0 ± 0.2	2.2 ± 0.6	1.5 ± 0.5	1.5 ± 0.3	45	chemiluminescent response with CSE in the absence of substrate [2]: no response; chemiluminescent response with CSE and Hcy substrate ([2]; by comparison to CSE alone (p<0.001) or CSE and Hcy inhibited with BCA (p<0.005)): robust response; chemiluminescent response to Hcy, BCA, pyruvate (Pyr) and NH3 ([2]; control experiments without CSE, p<0.005): negligible; luminescent response in C6 cell lysates lacking CSE substrates (C6 cells): minimal luminescent response; luminescence in C6 cell lysates with Hcy as CSE substrate (C6 cells; p<0.001 by comparison to lysates lacking substrate): significantly increased luminescence; luminescent response in C6 cell lysates with Hcy and BCA (C6 cells; p<0.005): abrogated the luminescent response; Normalized Luminescence (CL/CL0) ([5]; Reactant Toluenethiol (TolSH)): 1.9 ± 0.4
not air-sensitive	3640 ± 270	380 ± 80	[N-]=[N+]=Nc1cccc2c(=O)[nH][nH]c(=O)c12 [compound 200, 3-Azidophthalhydrazide]	robust chemiluminescent response	negligible chemiluminescence	6.6 ± 3.2	81 ± 5	94 ± 12	128 ± 16	9.1 ± 0.2	57 ± 3	37 ± 19	0.9 ± 0.2	0.6 ± 0.2	5.9 ± 1.1	0.05 ± 0.01	0.8 ± 0.3	128	–
